# Experimental data published in patent US5602106A, “16-membered macrolide derivatives” (priority 1993, dated 1997).
# Read-outs that look alike come from different tables or passages of the source.
# Experiments:
# Format in all cases: cell-based
# test strains = assay: Antimicrobial activity in vitro, test strains overall
# Protocol: (§1) The effect of the first aspect of the present invention resides in the creation of a novel and useful 16-membered macrolide derivative. Antimicrobial activities of the compounds of the present invention were determined by measuring minimum inhibitory concentration (MIC). Minimum inhibitory concentration was determined by the agar plate dilution method in the following manner.
# (§2) Test strains were subjected to seed culture using Sensitivity test broth (STB, Nissui Pharmaceutical) except that the strains belonging to the genus Streptococcus, Branhamella and Haemophilus were cultured on blood agar plate. A 5 μl portion of cell suspension of the test strains having about 10^6 CFU/ml was inoculated into Sensitivity disk agar (SDA, Nissui Pharmaceutical) supplemented with 5% horse blood and incubated at 37° C. for 20 hours. Then, MIC was measured. […] Antimicrobial activities in vitro of the compounds (1) and (2) are shown in Table 1, and those of the compounds (3) and (4) in Table 3.
# S. aureus M126 = assay: MIC, agar plate dilution method; details: Staphylococcus aureus, 37° C., 20 hours, SDA with 5% horse blood, read-out: Antimicrobial activity (MIC)
# Protocol: as §1, §2
# S. aureus MS15027 = assay: MIC, agar plate dilution method; details: Staphylococcus aureus
# Protocol: as §1, §2
# H. influenzae Type b = assay: MIC, agar plate dilution method; details: Haemophilus influenzae
# Protocol: as §1, §2
# S. aureus MS15026 = assay: MIC, agar plate dilution method; details: Staphylococcus aureus, 37° C., 20 hours, SDA with 5% horse blood, read-out: Antimicrobial activity (MIC)
# Protocol: as §1, §2
# E. faecalis W-73 = assay: MIC, agar plate dilution method; details: Enterococcus faecalis, W73, 20 h, read-out: Antimicrobial activity (MIC)
# Protocol: as §1, §2
# S. aureus MS15009/pMS98 = assay: MIC, agar plate dilution method; details: Staphylococcus aureus, MS15009/PMS98, 20 h, read-out: Antimicrobial activity (MIC), 37° C., 20 hours, SDA with 5% horse blood
# Protocol: as §1, §2
# S. pneumoniae Type 1 = assay: MIC, agar plate dilution method; details: Streptococcus pneumoniae
# Protocol: as §1, §2
# K. pneumoniae PCI602 = assay: MIC, agar plate dilution method; details: Klebsiella pneumoniae, 37° C., SDA with 5% horse blood, read-out: Antimicrobial activity (MIC)
# Protocol: as §1, §2
# E. coli NIHJ JC-2 = assay: MIC, agar plate dilution method; details: Escherichia coli, NIHJJC2, 20 h, 37° C., SDA with 5% horse blood, read-out: Antimicrobial activity (MIC)
# Protocol: as §1, §2
# M. luteus ATCC9341 = assay: MIC, agar plate dilution method; details: Micrococcus luteus
# Protocol: as §1, §2
# B. catarrhalis W-0500 = assay: MIC, agar plate dilution method; details: Moraxella catarrhalis, W0500; 37° C., 20 hours, SDA with 5% horse blood; read-out: Antimicrobial activity (MIC)
# Protocol: as §1, §2
# S. aureus M133 = assay: MIC, agar plate dilution method; details: Staphylococcus aureus, M133, 20 h
# Protocol: as §1, §2
# B. catarrhalis W-0506 = assay: MIC, agar plate dilution method; details: Moraxella catarrhalis, W0506; 37° C., 20 hours, SDA with 5% horse blood; read-out: Antimicrobial activity (MIC)
# Protocol: as §1, §2
# S. pneumoniae IP692 = assay: MIC, agar plate dilution method; details: Streptococcus pneumoniae, IP692, 20 h
# Protocol: as §1, §2
# S. pyogenes Cook = assay: MIC, agar plate dilution method; details: Streptococcus pyogenes
# Protocol: as §1, §2
# S. aureus MS15009/pMS99 = assay: MIC, agar plate dilution method; details: Staphylococcus aureus, MS15009/PMS99, 20 h, read-out: Antimicrobial activity (MIC)
# Protocol: as §1, §2
# S. aureus 209P JC-1 = assay: MIC, agar plate dilution method; details: Staphylococcus aureus, 209P, 20 h
# Protocol: as §1, §2
# S. epidermidis ATCC14990 = assay: MIC, agar plate dilution method; details: Staphylococcus epidermidis
# Protocol: as §1, §2
# [1] = system: clinically important Gram-positive bacteria; assay: Antimicrobial activity / growth inhibition
# Protocol: as §1, §2
# [2] = MS15027, 20 h, read-out: Antimicrobial activity (MIC), 37° C., 20 hours, SDA with 5% horse blood
# [3] = 20 h, read-out: Antimicrobial activity (MIC), 37° C., 20 hours, SDA with 5% horse blood
# [4] = read-out: Antimicrobial activity (MIC), 37° C., 20 hours, SDA with 5% horse blood
# [5] = 37° C., 20 hours, SDA with 5% horse blood, read-out: Antimicrobial activity (MIC)
# [6] = ATCC14990, 20 h, read-out: Antimicrobial activity (MIC), 37° C., 20 hours, SDA with 5% horse blood
# [7] = TYPE1, 37° C., 20 hours, SDA with 5% horse blood, read-out: Antimicrobial activity (MIC)
# [8] = ATCC9341, 37° C., 20 hours, SDA with 5% horse blood, read-out: Antimicrobial activity (MIC)
SMILES,MIC (S. aureus M126) [mg/L],MIC (S. aureus MS15027; [2]) [mg/L],MIC (H. influenzae Type b; [3]) [mg/L],MIC (S. aureus MS15026) [mg/L],MIC (E. faecalis W-73) [mg/L],MIC (S. aureus MS15009/pMS98) [mg/L],"MIC (K. pneumoniae PCI602; PCI602, 20 h) [mg/L]",MIC (E. coli NIHJ JC-2) [mg/L],MIC (B. catarrhalis W-0500) [mg/L],MIC (S. aureus M133; [4]) [mg/L],MIC (B. catarrhalis W-0506) [mg/L],MIC (S. pneumoniae IP692; [4]) [mg/L],MIC (S. aureus MS15009/pMS99) [mg/L],MIC (S. aureus 209P JC-1; [4]) [mg/L],MIC (S. epidermidis ATCC14990; [6]) [mg/L],MIC (S. pneumoniae Type 1; [7]) [mg/L],MIC (M. luteus ATCC9341; [8]) [mg/L],also measured
"CCOC(C)O[C@H]1/C=C/C=C/C[C@@H](C)OC(=O)C[C@@H](OC(=O)CC)[C@H](OC)[C@@H](O[C@@H]2O[C@H](C)[C@@H](O[C@H]3C[C@@](C)(OC)[C@@H](OC(=O)CC)[C@H](C)O3)[C@H](N(C)C)[C@H]2O)[C@@H](CC=O)C[C@H]1C (single isomer, unassigned) [(16H)]",,,,,,,,,,,,,,,,,,antimicrobial activities compared with compound (1) (test strains; vs compound (1)): inferior to those of the compound (1)
"CCC(=O)O[C@@H]1CC(=O)O[C@H](C)C/C=C/C=C/[C@H](O)[C@H](C)C[C@H](CC=O)[C@H](O[C@@H]2O[C@H](C)[C@@H](O[C@H]3C[C@@](C)(O)[C@@H](O)[C@H](C)O3)[C@H](N(C)C)[C@H]2O)[C@H]1OC [MDM-M1, midecamycin M1, reference compound]",> 100,6.25,100,> 100,12.5,6.25,> 100,> 100,25,12.5,25,0.78,> 100,6.25,12.5,,,"MIC (S. pneumoniae Type 1; TYPE1, 20 h, read-out: Antimicrobial activity (MIC), 37° C., 20 hours, SDA with 5% horse blood): 0.78 mg/L; MIC (M. luteus ATCC9341; ATCC9341, 20 h, read-out: Antimicrobial activity (MIC), 37° C., 20 hours, SDA with 5% horse blood): 0.39 mg/L; MIC (S. pyogenes Cook; [5]): 1.56 mg/L"
"CCC(=O)O[C@@H]1CC(=O)O[C@H](C)C/C=C/C=C/[C@H](O)[C@H](C)C[C@H](CC=O)[C@H](O[C@@H]2O[C@H](C)[C@@H](O[C@H]3C[C@@](C)(O)[C@@H](OC(=O)CC)[C@H](C)O3)[C@H](N(C)C)[C@H]2O)[C@H]1OC [MDM, midecamycin A1, reference compound]",> 100,,,> 100,,0.39,,,3.13,,3.13,,> 100,,,0.39,0.05,"MIC (S. aureus MS15027; MS15027, 37° C., 20 hours, SDA with 5% horse blood, read-out: Antimicrobial activity (MIC)): 0.78 mg/L; MIC (H. influenzae Type b; [5]): 25 mg/L; MIC (E. faecalis W-73; 37° C., 20 hours, SDA with 5% horse blood): 3.13 mg/L; MIC (K. pneumoniae PCI602; PCI602, 20 hours): > 100 mg/L; MIC (S. aureus M133; [5]): 0.78 mg/L; MIC (S. pneumoniae IP692; [5]): 0.39 mg/L; MIC (S. aureus 209P JC-1; [5]): 0.39 mg/L; MIC (S. epidermidis ATCC14990; ATCC14990, 37° C., 20 hours, SDA with 5% horse blood, read-out: Antimicrobial activity (MIC)): 0.78 mg/L"
"CCCC(=O)O[C@H]1[C@H](C)O[C@@H](O[C@H]2[C@H](N(C)C)[C@@H](O)[C@H](O[C@H]3[C@@H](CC=O)C[C@@H](C)[C@@H](OC(C)=O)/C=C/C=C/C[C@@H](C)OC(=O)C[C@@H](O)[C@@H]3OC)O[C@@H]2C)C[C@@]1(C)OC [(39), 9-O-acetyl-3""-O-methylleucomycin A5]",,,,,,,,,,,,,,,,,,"antimicrobial activities compared with starting materials (1), (2) and (33) (test strains; 9-O-acylated vs free 9-hydroxyl): strong antimicrobial activities by themselves though slightly lower than those of their starting materials"
"CO[C@@H]1[C@@H](O[C@@H]2O[C@H](C)[C@@H](O[C@H]3C[C@@](C)(OC)[C@@H](O)[C@H](C)O3)[C@H](N(C)C)[C@H]2O)[C@@H](CC=O)C[C@@H](C)[C@@H](O)/C=C/C=C/C[C@@H](C)OC(=O)C[C@H]1O [(4), 3""-O-methylleucomycin V]",> 100,0.78,12.5,> 100,0.78,0.39,> 100,> 100,1.56,0.78,1.56,0.1,> 100,0.39,0.78,0.05,0.05,"MIC (S. pyogenes Cook; [3]): 0.1 mg/L; improvement of MIC values over corresponding compounds with free 3""-hydroxyl (midecamycin M1, leucomycin V) (test strains; most of the test strains): improved two to three times; antimicrobial activities (in words) [1]: strong antimicrobial activities"
